This experiment deals with T1, BACE2 (Homo sapiens, UniProt Q9Y5Z0).
T1 construct: BACE2 enzyme ectodomain (derived from plasmid “pET17b-T7-hu proBACE2”) was prepared as described in Ostermann et al; T7 tag (N); made in house
T1 sequence (Q9Y5Z0 21-473 limits assumed): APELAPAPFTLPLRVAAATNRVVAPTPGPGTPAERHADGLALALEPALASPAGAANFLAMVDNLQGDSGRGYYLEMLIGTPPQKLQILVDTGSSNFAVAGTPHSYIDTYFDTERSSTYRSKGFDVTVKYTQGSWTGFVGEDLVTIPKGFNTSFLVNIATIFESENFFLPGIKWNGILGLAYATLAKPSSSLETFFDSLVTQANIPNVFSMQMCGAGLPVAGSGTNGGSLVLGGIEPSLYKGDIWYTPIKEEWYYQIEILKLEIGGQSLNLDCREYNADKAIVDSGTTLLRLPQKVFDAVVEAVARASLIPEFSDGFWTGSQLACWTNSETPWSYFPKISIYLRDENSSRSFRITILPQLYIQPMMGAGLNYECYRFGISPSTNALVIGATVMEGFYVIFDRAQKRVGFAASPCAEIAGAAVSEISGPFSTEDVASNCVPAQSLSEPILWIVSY
The experiment is described as follows: Fluorescent-peptide cleavage assay for BACE2 inhibition. Conditions: BACE2 enzyme ectodomain, fluorescent peptide WS EVNLD AEFRC-MR121, assay buffer pH 4.5, room temperature. In kind it is biochemical. Here is the method:
Fluorescent-Peptide Cleavage Assay for BACE2 Inhibition
The pro-enzyme was stored at 4° C. at a concentration of 70 μg/ml.
A fluorescent peptide with the amino acid sequence WS EVNLD AEFRC-MR121 was synthesised and a stock solution of 1.5 mM in DMSO prepared and stored at −20° C. MR121 is a fluorophore with an excitation wavelength of 630 nm and emission wavelength of 695 nm. The MR121 fluorescence is quenched by the N-terminal tryptophan until the peptide is cleaved by BACE2.
Assays were all made in a Corning 384-well black polystyrene non-binding surface microtitre plate with clear flat bottom and using a Plate:Vision (Perkin Elmer) fluorescence reader. To perform the assay an 80 nM solution of BACE2 was prepared in assay buffer (assay buffer is 100 mM Na-acetate; 20 mM EDTA; 0.05% BSA; pH 4.5) and incubated at room temperature for 1 hour to activate the enzyme. 39 μl of the activated BACE2 was placed in each assay well, followed by 1 μl compound to be tested at an appropriate concentration in 100% DMSO. The plate was then mixed and incubated for 10 minutes at room temperature.
The assay readout is the rate of change of fluorescence intensity giving a relative measure of BACE2 activity. Small values correspond to high inhibition and larger values to low inhibition. […] IC50 values were determined using these assay values generated for a range of inhibitor concentrations and the curve fitting software XLfit (IDBS) using the Sigmoidal Dose-Response Model.

Consider 25 molecules from US8461160B2, “Dihydropyrimidinones” (Hoffmann-La Roche, Inc., priority 2009, dated 2013).

Molecule `CN1C(=O)C(C)(C)[C@@](C)(c2cc(NC(=O)c3ccccn3)ccc2F)N=C1N` [Example 100, Pyridine-2-carboxylic acid [3-((S)-2-amino-1,4,5,5-tetramethyl-6-oxo-1,4,5,6-tetrahydro-pyrimidin-4-yl)-4-fluoro-phenyl]amide] gave an IC50 of 43 nM.
In turn, `CN1C(=O)C(C)(C)[C@@](C)(c2cc(NC(=O)c3ccc(Cl)cn3)ccc2F)N=C1N` [Example 53, 5-Chloro-pyridine-2-carboxylic acid [3-((S)-2-amino-1,4,5,5-tetramethyl-6-oxo-1,4,5,6-tetrahydro-pyrimidin-4-yl)-4-fluoro-phenyl]amide] displayed an IC50 of 8 nM.
For the molecule `CN1C(=O)C[C@@](C)(c2cccc(NC(=O)c3ncccc3Cl)c2)N=C1N` [Example 28, 3-Chloro-pyridine-2-carboxylic acid [3-((S)-2-amino-1,4-dimethyl-6-oxo-1,4,5,6-tetrahydro-pyrimidin-4-yl)-phenyl]amide], the half-maximal inhibitory concentration (IC50) was 18 nM.
Turning to `CN1C(=O)C(O)[C@@](C)(c2cc(NC(=O)c3ccccn3)ccc2F)N=C1N` (stereo partly drawn) [Example 123, Pyridine-2-carboxylic acid [3-((R)-2-amino-5-hydroxy-1,4-dimethyl-6-oxo-1,4,5,6-tetrahydro-pyrimidin-4-yl)-4-fluoro-phenyl]amide], it took 350 nM to reach half-maximal inhibition (IC50). This IC50 is about 19-fold higher than that of the molecule before.
In the case of `CN1C(=O)C(C)(C)[C@@](C)(c2cc(NC(=O)c3cnc(Cl)cn3)ccc2F)N=C1N` [Example 107, 5-Chloro-pyrazine-2-carboxylic acid [3-((S)-2-amino-1,4,5,5-tetramethyl-6-oxo-1,4,5,6-tetrahydro-pyrimidin-4-yl)-4-fluoro-phenyl]amide], half-maximal inhibition (IC50) required 27 nM. Against the preceding molecule, the IC50 is about 13-fold lower.
Consider `CN1C(=O)C[C@@](C)(c2cccc(NC(=O)c3csc(C(F)(F)F)n3)c2)N=C1N` [Example 66, 2-Trifluoromethyl-thiazole-4-carboxylic acid [3-((S)-2-amino-1,4-dimethyl-6-oxo-1,4,5,6-tetrahydro-pyrimidin-4-yl)-phenyl]-amide], for which 1550 nM corresponded to half-maximal inhibition (IC50). This IC50 lies about 57-fold higher than the previous one.
Molecule `CCC[C@@]1(c2cccc(NC(=O)c3ccccn3)c2)CC(=O)N(C)C(N)=N1` [Example 88, Pyridine-2-carboxylic acid [3-((S)-2-amino-1-methyl-6-oxo-4-propyl-1,4,5,6-tetrahydro-pyrimidin-4-yl)-phenyl]-amide] came in with an IC50 of 1780 nM.
Regarding `Cc1cc(C(=O)Nc2cccc([C@]3(C)CC(=O)N(C)C(N)=N3)c2)no1` [Example 82, 5-Methyl-isoxazole-3-carboxylic acid [3-((S)-2-amino-1,4-dimethyl-6-oxo-1,4,5,6-tetrahydro-pyrimidin-4-yl)-phenyl]-amide], the IC50 came out at 590 nM.
Turning to `COc1ccc(C(=O)Nc2cccc([C@]3(C)CC(=O)N(C)C(N)=N3)c2)nc1` [Example 14, 5-Methoxy-pyridine-2-carboxylic acid [3-((S)-2-amino-1,4-dimethyl-6-oxo-1,4,5,6-tetrahydro-pyrimidin-4-yl)-phenyl]-amide], the IC50 came out at 25 nM.
Under `CN1C(=O)C[C@@](C)(c2cccc(NC(=O)c3ccc4sccc4n3)c2)N=C1N` [Example 59, Thieno[3,2-b]pyridine-5-carboxylic acid [3-((S)-2-amino-1,4-dimethyl-6-oxo-1,4,5,6-tetrahydro-pyrimidin-4-yl)-phenyl]-amide] stands 1700 nM.
The molecule `CN1C(=O)C(OCc2ccccc2)[C@@](C)(c2cc(NC(=O)c3ccc(Cl)cn3)ccc2F)N=C1N` (stereo partly drawn) [Example 122, 5-Chloro-pyridine-2-carboxylic acid [3-((R)-2-amino-5-benzyloxy-1,4-dimethyl-6-oxo-1,4,5,6-tetrahydro-pyrimidin-4-yl)-4-fluoro-phenyl]amide] returned a 50% inhibitory concentration (IC50) of 10 nM. Against the preceding molecule, the IC50 is about 170-fold lower.
Take `CN1C(=O)C[C@@](C)(c2cccc(NC(=O)c3ccc(F)cn3)c2)N=C1N` [Example 27, 5-Fluoro-pyridine-2-carboxylic acid [3-((S)-2-amino-1,4-dimethyl-6-oxo-1,4,5,6-tetrahydro-pyrimidin-4-yl)-phenyl]amide]: the concentration for half-maximal inhibition (IC50) is 18 nM.
The molecule `CN1C(=O)C[C@@](C)(c2cccc(NC(=O)c3ccc(Cl)s3)c2)N=C1N` [Example 2, 5-Chloro-thiophene-2-carboxylic acid [3-((S)-2-amino-1,4-dimethyl-6-oxo-1,4,5,6-tetrahydro-pyrimidin-4-yl)-phenyl]amide] returned an IC50 of 14 nM.
In turn, `C[C@H]1C(=O)N(C)C(N)=N[C@]1(C)c1cccc(NC(=O)c2ccc(Cl)cn2)c1` [Example 91, 5-Chloro-pyridine-2-carboxylic acid [3-((4S,5R)-2-amino-1,4,5-trimethyl-6-oxo-1,4,5,6-tetrahydro-pyrimidin-4-yl)-phenyl]amide] showed an IC50 of 17 nM.
With `CC[C@@]1(c2cccc(NC(=O)c3ccc(Cl)s3)c2)CC(=O)N(C)C(N)=N1` [Example 41, 5-Chloro-thiophene-2-carboxylic acid [3-((S)-2-amino-4-ethyl-1-methyl-6-oxo-1,4,5,6-tetrahydro-pyrimidin-4-yl)-phenyl]-amide] the figure was 95 nM.
Consider `Cc1cc(Cl)cnc1C(=O)Nc1cccc([C@]2(C)CC(=O)N(C)C(N)=N2)c1` [Example 75, 5-Chloro-3-methyl-pyridine-2-carboxylic acid [3-((S)-2-amino-1,4-dimethyl-6-oxo-1,4,5,6-tetrahydro-pyrimidin-4-yl)-phenyl]-amide], for which the concentration for half-maximal inhibition (IC50) is 17 nM.
As for `CN1C(=O)C[C@@](C)(c2cccc(NC(=O)c3ncc(C(F)(F)F)cc3Cl)c2)N=C1N` [Example 70, 3-Chloro-5-trifluoromethyl-pyridine-2-carboxylic acid [3-((S)-2-amino-1,4-dimethyl-6-oxo-1,4,5,6-tetrahydro-pyrimidin-4-yl)-phenyl]-amide], the concentration for half-maximal inhibition (IC50) stood at 16 nM. The IC50 values of the last two molecules are within 1.5-fold of each other.
With `Cc1nc(C(=O)Nc2cccc([C@]3(C)CC(=O)N(C)C(N)=N3)c2)co1` [Example 38, 2-Methyl-oxazole-4-carboxylic acid [3-((S)-2-amino-1,4-dimethyl-6-oxo-1,4,5,6-tetrahydro-pyrimidin-4-yl)-phenyl]-amide] the figure was 9 nM; with `CN1C(=O)C[C@@](C)(c2cccc(NC(=O)c3cn4ccccc4n3)c2)N=C1N` [Example 9, Imidazo[1,2-a]pyridine-2-carboxylic acid [3-((S)-2-amino-1,4-dimethyl-6-oxo-1,4,5,6-tetrahydro-pyrimidin-4-yl)-phenyl]amide], 110 nM; with `C[C@@]1(c2cccc(NC(=O)c3ccc(Cl)cn3)c2)CC(=O)N(CC2CC2)C(N)=N1` [Example 124, 5-Chloro-pyridine-2-carboxylic acid [3-((S)-2-amino-1-cyclopropylmethyl-4-methyl-6-oxo-1,4,5,6-tetrahydro-pyrimidin-4-yl)-phenyl]amide], 42 nM.
Regarding `Cc1cc(C(=O)Nc2cccc([C@]3(C)CC(=O)N(C)C(N)=N3)c2)c(C)s1` [Example 3, 2,5-Dimethyl-thiophene-3-carboxylic acid [3-((S)-2-amino-1,4-dimethyl-6-oxo-1,4,5,6-tetrahydro-pyrimidin-4-yl)-phenyl]amide], the half-inhibitory concentration (IC50) stood at 86 nM.
In the case of `CN1C(=O)C[C@@](C)(c2cccc(NC(=O)c3ccccn3)c2)N=C1N` [Example 13, Pyridine-2-carboxylic acid [3-((S)-2-amino-1,4-dimethyl-6-oxo-1,4,5,6-tetrahydro-pyrimidin-4-yl)-phenyl]-amide], inhibition was half-maximal at 9 nM (IC50).
Under `CC[C@@]1(c2cccc(NC(=O)c3ccccn3)c2)CC(=O)N(C)C(N)=N1` [Example 40, Pyridine-2-carboxylic acid [3-((S)-2-amino-4-ethyl-1-methyl-6-oxo-1,4,5,6-tetrahydro-pyrimidin-4-yl)-phenyl]-amide] stands 39 nM; under `CN1C(=O)C[C@@](C)(c2cccc(NC(=O)c3ncccc3C(F)(F)F)c2)N=C1N` [Example 62, 3-Trifluoromethyl-pyridine-2-carboxylic acid [3-((S)-2-amino-1,4-dimethyl-6-oxo-1,4,5,6-tetrahydro-pyrimidin-4-yl)-phenyl]-amide], 150 nM.
As for `CN1C(=O)C[C@@](C)(c2cccc(NC(=O)c3ncccc3-c3ccccc3)c2)N=C1N` [Example 37, 3-Phenyl-pyridine-2-carboxylic acid [3-((S)-2-amino-1,4-dimethyl-6-oxo-1,4,5,6-tetrahydro-pyrimidin-4-yl)-phenyl]-amide], the IC50 was 21 nM.

For orientation: IC50 means the concentration that inhibits the measured activity by half. Low readings indicate inhibition by little substance, high ones a need for much substance.
